In experiment [1] the target is T1, zebrafish P2X4 (zfP2X4) WT (Danio rerio, UniProt F8W463).
T1 construct: The cRNAs encoding zebrafish P2X4 (NP_705939; WT); expressed in transfected cells; host or cells: Xenopus laevis oocytes injected with cRNA from pGEMHE
T1 sequence (F8W463 1-389): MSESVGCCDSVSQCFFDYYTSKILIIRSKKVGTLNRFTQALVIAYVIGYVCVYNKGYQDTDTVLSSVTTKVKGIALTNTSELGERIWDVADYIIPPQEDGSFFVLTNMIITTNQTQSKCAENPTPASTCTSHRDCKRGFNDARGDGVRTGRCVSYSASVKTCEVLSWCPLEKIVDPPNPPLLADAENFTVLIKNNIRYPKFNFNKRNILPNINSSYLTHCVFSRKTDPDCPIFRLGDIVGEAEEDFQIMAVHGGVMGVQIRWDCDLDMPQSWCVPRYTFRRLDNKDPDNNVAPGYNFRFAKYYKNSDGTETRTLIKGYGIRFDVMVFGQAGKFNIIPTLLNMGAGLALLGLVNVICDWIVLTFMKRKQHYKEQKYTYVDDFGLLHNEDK
Description: Two Electrode Voltage Clamp recording of Xenopus oocytes expressing zebrafish P2X4 WT. The class given is cell-based. To be noted: 1 mM nucleotide for 10 sec after prior application of 100 μM ATP; holding potential −70 mV; n = 4. An excerpt: To assess the nucleotide base specificity of zebrafish P2X4 (zfP2X4), we first performed Two Electrode Voltage Clamp (TEVC) recording of Xenopus oocytes. As shown previously, the initial “priming” application with a low concentration of ATP increases P2X receptors sensitivity to second or more applications of ligands, which is useful for evaluating the affinity of ligands. Therefore, we expressed zfP2X4 in oocytes and recorded the zfP2X4-associated currents evoked by the application of high concentrations (1 mM) of nucleoside triphosphates (ATP, CTP, GTP and UTP), following the prior application of 100 μM ATP.
Figure 1 Current responses of zebrafish P2X4 evoked by nucleoside triphosphates. (A–D) Representative currents of zebrafish P2X4 WT, evoked first by 100 μM ATP and then by (A) 1 mM ATP, (B) 1 mM CTP, (C) 1 mM GTP and (D) 1 mM UTP. Each nucleotide was applied for 10 sec. The holding potential was −70 mV.
(§1) The cRNAs encoding zebrafish P2X4 (NP_705939; WT) and rat P2X4 (NP_113782.1; WT and mutants) were transcribed from pGEMHE plasmids, using a mMessage mMachine® T7 ULTRA kit (Ambion, Huntingdon, Cambridgeshire, UK). Xenopus laevis oocytes were prepared, and RNA (100 ng for zebrafish P2X4, and 20 ng for rat P2X4) was injected into the oocytes. The oocytes were incubated at 18 °C in Barth’s solution, containing 88 mM NaCl, 1 mM KCl, 2.4 mM NaHCO3, 10 mM HEPES, 0.33 mM Ca(NO3)2, 0.41 mM CaCl2, and 0.82 mM MgSO4, pH 7.4, supplemented with 50 μg/ml gentamicin, and were used for recording after 2–3 days. Recording solutions contained 100 mM NaCl, 5 mM HEPES, 2 mM MgCl2, pH 7.3, and nucleoside triphosphates (ATP, CTP, GTP, and UTP), which were freshly prepared each day. Oocytes were held at −70 mV with a bath-clamp amplifier (OC-725C, Warner Co., USA), and macroscopic currents were recorded and analyzed using the pClamp 10 software (Molecular Devices, USA)[33][34]. We measured n = 4 for zebrafish P2X4 data and n = 7–9 for rat P2X4 data.

Experiment [2] has as its target T2, rat P2X4 rH140R mutant (Rattus norvegicus, UniProt P51577, H140R).
T2 construct: rat P2X4 (NP_113782.1; WT and mutants) were transcribed from pGEMHE plasmids; expressed in transfected cells; host or cells: Xenopus laevis oocytes injected with cRNA from pGEMHE
T2 sequence (P51577 1-388 H140R): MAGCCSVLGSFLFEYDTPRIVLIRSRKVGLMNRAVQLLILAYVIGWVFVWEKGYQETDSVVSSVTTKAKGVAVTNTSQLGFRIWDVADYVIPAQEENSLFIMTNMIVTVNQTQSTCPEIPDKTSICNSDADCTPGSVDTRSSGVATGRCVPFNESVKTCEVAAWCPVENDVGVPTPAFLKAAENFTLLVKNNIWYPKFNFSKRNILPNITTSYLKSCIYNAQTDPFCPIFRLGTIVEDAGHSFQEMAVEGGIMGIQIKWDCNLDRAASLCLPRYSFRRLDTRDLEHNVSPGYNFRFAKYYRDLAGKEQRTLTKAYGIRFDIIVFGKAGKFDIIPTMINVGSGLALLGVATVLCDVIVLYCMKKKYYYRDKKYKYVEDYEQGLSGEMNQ
Nature of the experiment: Two-Electrode Voltage Clamp recording, rat P2X4 H140R mutant in Xenopus oocytes. The conditions noted are these: for nucleotide-evoked currents / EC50: rH140R mutant; for nucleotide-evoked currents: 3 mM GTP, 3 mM UTP (Fig. S4); for fold reduced affinity as compared with rWT: rH140R mutant vs rWT, from EC50; for EC50: oocytes held at −70 mV, n = 9-10, read-out: EC50 (evoked current, dose-response). The class given is cell-based. As to the method:
Figure 4 Current responses of ^rWT, ^rT186S, ^rH140A and ^rH140R evoked by ATP and CTP. (A,B) Representative currents of ^rWT evoked by ATP (1–300 μM) (A) and CTP (10–10,000 μM) (B). (C,D) Representative currents of the ^rT186S mutant evoked by ATP (1–300 μM) (C) and CTP (10–10,000 μM) (D). (E,F) Representative currents of the ^rH140A mutant evoked by ATP (1–300 μM) (E) and CTP (10–10,000 μM) (F). (G,H) Representative currents of the ^rH140R mutant evoked by ATP (1–300 μM) (G) and CTP (10–10,000 μM) (H). (I–K) Concentration-response curves evoked by ATP and CTP in the ^rWT and the ^rT186S mutant (I), in the ^rWT and the ^rH140A mutant (J) and in the ^rWT and the ^rH140R mutant (K). Symbols are defined in the figure, and bars depict means ± SEM (n = 7–9).
Next we assessed the functional role of R143 in zfP2X4, as its side chain forms a hydrogen bond with the cytosine ring in the CTP-bound structure (Fig. 3A,B). This arginine residue is substituted with a similar basic residue, histidine (^rH140), in rat P2X4 (Fig. 3E).
as §1
On the technique in general: In two-electrode clamp one electrode senses voltage and the other passes current.

Take `Nc1nc2c(ncn2[C@@H]2O[C@H](COP(=O)(O)OP(=O)(O)OP(=O)(O)O)[C@@H](O)[C@H]2O)c(=O)[nH]1` [GTP]: the “zfP2X4-associated currents evoked by nucleoside triphosphate” value (“zfP2X4-associated currents evoked” for short) in experiment [1] was “not GTP- and UTP-evoked currents”. In addition, in experiment [2], the nucleotide-evoked currents result was “no GTP- and UTP-evoked currents were detected”.
By EC50 is commonly meant the concentration that produces a half-maximal response. Take `Nc1ccn([C@@H]2O[C@H](COP(=O)(O)OP(=O)(O)OP(=O)(O)O)[C@@H](O)[C@H]2O)c(=O)n1` [CTP]: in experiment [1], the “zfP2X4-associated currents evoked” value is “detected specific ATP- and CTP-evoked currents”. In experiment [2], the “fold reduced affinity as compared with rWT” value is recorded as “about 2 fold” and the EC50 amounted to 1100 ± 140 µM.
In the case of `O=c1ccn([C@@H]2O[C@H](COP(=O)(O)OP(=O)(O)OP(=O)(O)O)[C@@H](O)[C@H]2O)c(=O)[nH]1` [UTP], the “zfP2X4-associated currents evoked” value in experiment [1] was “not GTP- and UTP-evoked currents”. The nucleotide-evoked currents entry in experiment [2] was “no GTP- and UTP-evoked currents were detected”.
For the compound `Nc1ncnc2c1ncn2[C@@H]1O[C@H](COP(=O)(O)OP(=O)(O)OP(=O)(O)O)[C@@H](O)[C@H]1O` [ATP, Adenosine 5-triphosphate], the “zfP2X4-associated currents evoked” value in experiment [1] was “detected specific ATP- and CTP-evoked currents”. In experiment [2], the “fold reduced affinity as compared with rWT” value was “about 2 fold” and the half-maximal effective concentration (EC50) came out at 39.4 ± 5 µM.
